Measurements: US11046945B2, “Labeled glutaminase proteins, isolated glutaminase protein mutants, methods of use, and kit” (CORNELL UNIVERSITY, priority 2013, dated 2021)
Residue numbers refer to the chain shown, from its start.

Legend:
[1] = target: T1, 488-K316E-D391K-R459E-GAC (Mus musculus, UniProt D3Z7P3, D391K/K316E/R459E); assay: Real-time binding read-out by fluorescence quenching, monomer mutant; conditions: 20 nM 488-labeled protein, 968 titration
T1 construct: plasmid (residues 72-603 for GAC, 72-674 for KGA); His-tag with thrombin cleavage site (N, cleaved yes); made in house; host or cells: pET23a vector
T1 sequence (D3Z7P3 72-603 isoform D3Z7P3-2 K316E/D391K/R459E): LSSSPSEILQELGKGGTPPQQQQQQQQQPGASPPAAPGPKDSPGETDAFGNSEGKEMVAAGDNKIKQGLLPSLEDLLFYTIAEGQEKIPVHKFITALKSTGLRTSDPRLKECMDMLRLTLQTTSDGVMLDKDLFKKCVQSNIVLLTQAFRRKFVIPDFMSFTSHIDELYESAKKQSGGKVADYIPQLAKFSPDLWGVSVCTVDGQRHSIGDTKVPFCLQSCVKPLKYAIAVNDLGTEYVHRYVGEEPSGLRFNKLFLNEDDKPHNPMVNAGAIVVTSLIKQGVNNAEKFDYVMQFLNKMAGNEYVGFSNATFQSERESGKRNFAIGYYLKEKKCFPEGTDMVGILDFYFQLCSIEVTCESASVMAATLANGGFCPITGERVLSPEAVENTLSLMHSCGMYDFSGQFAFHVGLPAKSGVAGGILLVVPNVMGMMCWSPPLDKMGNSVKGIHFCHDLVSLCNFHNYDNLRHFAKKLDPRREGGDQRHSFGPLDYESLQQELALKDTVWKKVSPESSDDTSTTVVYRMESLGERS
Method: (§1) Real-time fluorescence monitoring of 488-GAC fluorescence and NADH fluorescence was performed on a Varian Carry Eclipse Fluorometer, whereas small molecule inhibition and binding titrations were performed in a 96-well format using Grenier non-binding 96-well plates in a Tecan Saphire absorbance and fluorescence plate reader. Samples for monitoring real time binding of 968 to 488-GAC were prepared by adding 10 μL […] (490 nm excitation/520 nm emission). Similarly, this method was replicated for monitoring real time binding of 968 to KGA and mutant forms of GAC, namely 488-D391K-GAC and 488-K316E-D391K-R459E-GAC. Titrations of 968 with mutant forms of GAC were done in triplicate and quantified by the following equation
(§2) [formula] where F is the normalized fluorescence at given drug concentration (i.e., F/F0), and Fsat is the normalized fluorescence at saturating concentrations of drug, as shown in FIG. 7A. […] 10 nM WT GAC was added and allowed to equilibrate 2 minutes before beginning to monitor fluorescence of 488-GAC (490 nm excitation, 520 nm emission) and NADH fluorescence (340 nm excitation, 490 nm emission). […] The activity of GAC was indirectly measured by the NADH produced by the added glutamate dehydrogenase, which converts the product of glutaminase activity, glutamate, to α-ketoglutarate and ammonia through reducing NAD^+ to NADH. […]

488-D391K-GAC = target: T2, 488-D391K-GAC (Mus musculus, UniProt D3Z7P3, D391K); assay: Real-time binding read-out by fluorescence quenching, dimer mutant; conditions: 20 nM 488-labeled protein, 968 titration
T2 construct: plasmid (residues 72-603 for GAC, 72-674 for KGA); His-tag with thrombin cleavage site (N, cleaved yes); made in house; host or cells: pET23a vector
T2 sequence (D3Z7P3 72-603 isoform D3Z7P3-2 D391K): T1 sequence (D3Z7P3 72-603 isoform D3Z7P3-2 K316E/D391K/R459E) with E245K, E388R
Method: as §1, with “10” for “10 μL”
as §2

Compound: CN(C)c1ccc(C2Nc3ccc4ccccc4c3C3=C2C(=O)CC(C)(C)C3)cc1Br (centres unmarked) [compound 968]
- binding to monomeric GAC (K316E-D391K-R459E) mutant, relative affinity [1]: highest affinity
- binding to dimeric GAC (D391K) mutant (488-D391K-GAC): capable of binding
